According to patent publication US20250282768A1 (Janssen Pharmaceutica NV, priority 2022, published 2025):

system: p-IKKa levels in L363 (NIK translocated multiple myeloma) cells; experiment: Assay 2: Effect of compounds on p-IKKa levels in L363 (NIK translocated multiple myeloma) cells; type: cell-based; details: Homo sapiens, L-363, 6 h, read-out: Assay 2 IC50 (nM), p-IKKa (Ser 176/180) in BAFF stimulated L363 cells with MG132, 6 h; average if tested more than once
Method in brief: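 Read-out is p-IKKa Ser176/180 by AlphaLISA SureFire in lysates. Cells were BAFF-primed (250 ng/ml) overnight or left unstimulated, then exposed 6 h at 37 °C to compound with MG132 (10 μM), 0.3% DMSO. IC50 from sigmoidal curve fit, normalized between stimulated and unstimulated controls.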

Compound | IC50 [nM]
Cc1cnc(Nc2cnn(C)c2)nc1-c1cccc(-c2cc([C@]3(O)CCN(C)C3=O)on2)n1 [Example 208, (R)-3-Hydroxy-1-methyl-3-(3-(6-(5-methyl-2-((1-methyl-1H-pyrazol-4-yl)amino)pyrimidin-4-yl)pyridin-2-yl)isoxazol-5-yl)pyrrolidin-2-one] | > 500
[2H]c1cc(-c2cccc(-c3cc([C@]4(O)CCN(C)C4=O)on3)n2)nc(Nc2ccn(C)n2)n1 [Example 209, (R)-3-Hydroxy-1-methyl-3-(3-(6-(2-((1-methyl-1H-pyrazol-3-yl)amino)pyrimidin-4-yl-6-d)pyridin-2-yl)isoxazol-5-yl)pyrrolidin-2-one] | < 50
[2H]c1cc(-c2cccc(-c3cc([C@]4(O)CCN(C)C4=O)on3)n2)nc(Nc2ccn(CC)n2)n1 [Example 210, (R)-3-(3-(6-(2-((1-Ethyl-1H-pyrazol-3-yl)amino)pyrimidin-4-yl-6-d)pyridin-2-yl)isoxazol-5-yl)-3-hydroxy-1-methylpyrrolidin-2-one] | < 50
Cc1nn(C(F)F)cc1Nc1nccc(-c2cccc(-c3cc([C@]4(O)CCN(C)C4=O)on3)n2)n1 [Example 211, (R)-3-(3-(6-(2-((1-(Difluoromethyl)-3-methyl-1H-pyrazol-4-yl)amino)pyrimidin-4-yl)pyridin-2-yl)isoxazol-5-yl)-3-hydroxy-1-methylpyrrolidin-2-one] | < 50
CN1CC[C@@](O)(c2cc(-c3cccc(-c4ccnc(Nc5ccn(C6CC6)n5)n4)n3)no2)C1=O [Example 212, (R)-3-(3-(6-(2-((1-Cyclopropyl-1H-pyrazol-3-yl)amino)pyrimidin-4-yl)pyridin-2-yl)isoxazol-5-yl)-3-hydroxy-1-methylpyrrolidin-2-one] | < 50
Cc1cc(Nc2nccc(-c3cccc(-c4cc([C@]5(O)CCN(C)C5=O)no4)n3)n2)ccn1 [Example 213, (R)-3-Hydroxy-1-methyl-3-(5-(6-(2-((2-methylpyridin-4-yl)amino)pyrimidin-4-yl)pyridin-2-yl)isoxazol-3-yl)pyrrolidin-2-one] | 50 to 500
CN1CC[C@@](O)(c2cn(-c3cccc(-c4ccnc(Nc5ccn(CC(F)F)n5)n4)n3)nn2)C1=O [Example 214, (R)-3-(1-(6-(2-((1-(2,2-Difluoroethyl)-1H-pyrazol-3-yl)amino)pyrimidin-4-yl)pyridin-2-yl)-1H-1,2,3-triazol-4-yl)-3-hydroxy-1-methylpyrrolidin-2-one] | < 50
CN1CC[C@@](O)(c2cc(-c3cccc(-c4ccnc(Nc5cnn(C6CNC6)c5)n4)n3)no2)C1=O [Example 215, (R)-3-(3-(6-(2-((1-(Azetidin-3-yl)-1H-pyrazol-4-yl)amino)pyrimidin-4-yl)pyridin-2-yl)isoxazol-5-yl)-3-hydroxy-1-methylpyrrolidin-2-one] | > 500
CN1CC[C@@](O)(c2cc(-c3cccc(-c4ccnc(Nc5cnn6ncccc56)n4)n3)no2)C1=O [Example 216, (R)-3-Hydroxy-1-methyl-3-(3-(6-(2-(pyrazolo[1,5-b]pyridazin-3-ylamino)pyrimidin-4-yl)pyridin-2-yl)isoxazol-5-yl)pyrrolidin-2-one] | < 50
CCn1ncc(Nc2nccc(-c3cccc(-c4cc([C@]5(O)CCN(C)C5=O)on4)n3)n2)c1C [Example 217, (R)-3-(3-(6-(2-((1-Ethyl-5-methyl-1H-pyrazol-4-yl)amino)pyrimidin-4-yl)pyridin-2-yl)isoazol-5-yl)-3-hydroxy-1-methylpyrrolidin-2-one] | < 50
CN1CC[C@@](O)(c2cc(-c3cccc(-c4ccnc(Nc5cnc6cccnn56)n4)n3)no2)C1=O [Example 218, (R)-3-Hydroxy-3-(3-(6-(2-(imidazo[1,2-b]pyridazin-3-ylamino)pyrimidin-4-yl)pyridin-2-yl)isoxazol-5-yl)-1-methylpyrrolidin-2-one] | > 500
CN1CC[C@@](O)(c2cc(-c3cccc(-c4ccnc(Nc5cnc6ccccn56)n4)n3)no2)C1=O [Example 219, (R)-3-Hydroxy-3-(3-(6-(2-(imidazo[1,2-a]pyridin-3-ylamino)pyrimidin-4-yl)pyridin-2-yl)isoxazol-5-yl)-1-methylpyrrolidin-2-one] | > 500
CCn1ncc(Nc2nccc(-c3cccc(-c4cc([C@]5(O)CCN(C)C5=O)on4)n3)n2)c1OC [Example 220, (R)-3-(3-(6-(2-((1-Ethyl-5-methoxy-1H-pyrazol-4-yl)amino)pyrimidin-4-yl)pyridin-2-yl)isoxazol-5-yl)-3-hydroxy-1-methylpyrrolidin-2-one] | 50 to 500
CN1CC[C@@](O)(c2cc(-c3cccc(-c4ccnc(Nc5cnn6c5CCC6)n4)n3)no2)C1=O [Example 221, (R)-3-(3-(6-(2-((5,6-Dihydro-4H-pyrrolo[1,2-b]pyrazol-3-yl)amino)pyrimidin-4-yl)pyridin-2-yl)isoxazol-5-yl)-3-hydroxy-1-methylpyrrolidin-2-one] | < 50
Cc1c(Nc2nccc(-c3cccc(-c4cc([C@]5(O)CCN(C)C5=O)on4)n3)n2)cnn1C [Example 222, (R)-3-(3-(6-(2-((1,5-Dimethyl-1H-pyrazol-4-yl)amino)pyrimidin-4-yl)pyridin-2-yl)isoxazol-5-yl)-3-hydroxy-1-methylpyrrolidin-2-one] | < 50
Cc1c(Nc2nccc(-c3cccc(-c4cc([C@@]5(O)C(=O)N(C)CC5(F)F)on4)n3)n2)cnn1C [Example 223, (R)-3-(3-(6-(2-((1,5-Dimethyl-1H-pyrazol-4-yl)amino)pyrimidin-4-yl)pyridin-2-yl)isoxazol-5-yl)-4,4-difluoro-3-hydroxy-1-methylpyrrolidin-2-one] | < 50
Cc1c(Nc2nccc(-c3cccc(-c4cc([C@]5(O)CCN(C)C5=O)on4)n3)n2)cnn1CC(F)F [Example 225, (R)-3-(3-(6-(2-((1-(2,2-Difluoroethyl)-5-methyl-1H-pyrazol-4-yl)amino)pyrimidin-4-yl)pyridin-2-yl)isoxazol-5-yl)-3-hydroxy-1-methylpyrrolidin-2-one] | < 50
CCc1c(Nc2nccc(-c3cccc(-c4cc([C@]5(O)CCN(C)C5=O)on4)n3)n2)cnn1C [Example 226, (R)-3-(3-(6-(2-((5-Ethyl-1-methyl-1H-pyrazol-4-yl)amino)pyrimidin-4-yl)pyridin-2-yl)isoxazol-5-yl)-3-hydroxy-1-methylpyrrolidin-2-one] | < 50
Cc1c(Nc2nccc(-c3cccc(-c4cc([C@]5(O)CCN(C)C5=O)on4)n3)n2)cnn1C(F)F [Example 227, (R)-3-(3-(6-(2-((1-(Difluoromethyl)-5-methyl-1H-pyrazol-4-yl)amino)pyrimidin-4-yl)pyridin-2-yl)isoxazol-5-yl)-3-hydroxy-1-methylpyrrolidin-2-one] | < 50
CN1CC[C@@](O)(c2cc(-c3cccc(-c4ccnc(Nc5cnn(C)c5C5CC5)n4)n3)no2)C1=O [Example 228, (R)-3-(3-(6-(2-((5-Cyclopropyl-1-methyl-1H-pyrazol-4-yl)amino)pyrimidin-4-yl)pyridin-2-yl)isoxazol-5-yl)-3-hydroxy-1-methylpyrrolidin-2-one] | < 50
Cc1nscc1Nc1nccc(-c2cccc(-c3cc([C@]4(O)CCN(C)C4=O)on3)n2)n1 [Example 229, (R)-3-Hydroxy-1-methyl-3-(3-(6-(2-((3-methylisothiazol-4-yl)amino)pyrimidin-4-yl)pyridin-2-yl)isoxazol-5-yl)pyrrolidin-2-one] | < 50
